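Compound exposure: 48 hours, 5 concentrations, 96-well plates. GI50 = concentration required for 50% inhibition of growth. The concentration for full growth arrest is given as TGI.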
How the values were obtained:
Assay in all cases: inhibition of tumour cell growth, NCI panel, 48 h
TK-10 renal = test system: TK-10 renal
MALME-3M melanoma = test system: MALME-3M melanoma
HCT-116 colon = test system: HCT-116 colon
A549 NSCLC = test system: A549 NSCLC
COLO 205 colon = test system: COLO 205 colon
HCC-2998 colon = test system: HCC-2998 colon
OVCAR-3 ovarian = test system: OVCAR-3 ovarian
SR leukemia = test system: SR leukemia
A498 renal = test system: A498 renal
SK-MEL-5 melanoma = test system: SK-MEL-5 melanoma
SN12C renal = test system: SN12C renal
SNB-75 CNS = test system: SNB-75 CNS
LOX IMVI melanoma = test system: LOX IMVI melanoma
NCI-H23 lung = test system: NCI-H23 lung
UACC-62 melanoma = test system: UACC-62 melanoma
PC-3 prostate = test system: PC-3 prostate
MCF7 breast = test system: MCF7 breast
RXF 393 renal = test system: RXF 393 renal
SK-OV-3 ovarian = test system: SK-OV-3 ovarian
SK-MEL-28 melanoma = test system: SK-MEL-28 melanoma
HL-60(TB) leukemia = test system: HL-60(TB) leukemia
HOP-92 NSCLC = test system: HOP-92 NSCLC
ACHN renal = test system: ACHN renal
OVCAR-4 ovarian = test system: OVCAR-4 ovarian
M14 melanoma = test system: M14 melanoma
UACC-257 melanoma = test system: UACC-257 melanoma
OVCAR-8 ovarian = test system: OVCAR-8 ovarian
KM12 colon = test system: KM12 colon
SF-539 CNS = test system: SF-539 CNS

**Q.** Which GI50 (TK-10 renal) does the source give for `CCCCC/C=C/C(=O)CCc1ccc(O)c(OC)c1` here?
**A.** Its GI50 is 11.6 µM.

**Q.** And the TGI (TK-10 renal)?
**A.** The TGI was 24.7 µM.

**Q.** What about the GI50 (MALME-3M melanoma) of the same molecule?
**A.** The GI50 was 16.6 µM.

**Q.** What about the TGI (MALME-3M melanoma) of the same molecule?
**A.** Its TGI is 35.3 µM.

**Q.** What about the GI50 (HCT-116 colon) of the same molecule?
**A.** Its GI50 is 1.71 µM.

**Q.** What about the TGI (HCT-116 colon) of the same molecule?
**A.** The TGI was 3.26 µM.

**Q.** And the GI50 (A549 NSCLC)?
**A.** The GI50 was 6.25 µM.

**Q.** And the TGI (A549 NSCLC)?
**A.** Its TGI is 20.8 µM.

**Q.** What about the GI50 (COLO 205 colon) of the same molecule?
**A.** The GI50 was 11.2 µM.

**Q.** What about the TGI (COLO 205 colon) of the same molecule?
**A.** The TGI was 24.1 µM.

**Q.** And the GI50 (HCC-2998 colon)?
**A.** Its GI50 is 16.7 µM.

**Q.** And the TGI (HCC-2998 colon)?
**A.** The TGI was 30.7 µM.

**Q.** What about the GI50 (OVCAR-3 ovarian) of the same molecule?
**A.** The GI50 was 3.23 µM.

**Q.** What about the TGI (OVCAR-3 ovarian) of the same molecule?
**A.** The TGI was 12.9 µM.

**Q.** What about the GI50 (SR leukemia) of the same molecule?
**A.** Its GI50 is 2.89 µM.

**Q.** What about the TGI (SR leukemia) of the same molecule?
**A.** Its TGI is over 100 µM.

**Q.** What about the GI50 (A498 renal) of the same molecule?
**A.** Its GI50 is 13.1 µM.

**Q.** What about the TGI (A498 renal) of the same molecule?
**A.** Its TGI is 26.8 µM.

**Q.** What about the GI50 (SK-MEL-5 melanoma) of the same molecule?
**A.** Its GI50 is 12.4 µM.

**Q.** And the TGI (SK-MEL-5 melanoma)?
**A.** Its TGI is 25.1 µM.

**Q.** What about the GI50 (SN12C renal) of the same molecule?
**A.** The GI50 was 7.99 µM.

**Q.** What about the TGI (SN12C renal) of the same molecule?
**A.** The TGI was 21.4 µM.

**Q.** What about the GI50 (SNB-75 CNS) of the same molecule?
**A.** Its GI50 is 5.63 µM.

**Q.** And the TGI (SNB-75 CNS)?
**A.** The TGI was 20.5 µM.

**Q.** What about the GI50 (LOX IMVI melanoma) of the same molecule?
**A.** Its GI50 is 1.6 µM.

**Q.** What about the TGI (LOX IMVI melanoma) of the same molecule?
**A.** The TGI was 3.29 µM.

**Q.** What about the GI50 (NCI-H23 lung) of the same molecule?
**A.** The GI50 was 4.62 µM.

**Q.** And the TGI (NCI-H23 lung)?
**A.** Its TGI is 17.9 µM.

**Q.** What about the GI50 (UACC-62 melanoma) of the same molecule?
**A.** The GI50 was 13.9 µM.

**Q.** And the TGI (UACC-62 melanoma)?
**A.** Its TGI is 27.7 µM.

**Q.** And the GI50 (PC-3 prostate)?
**A.** Its GI50 is 3.75 µM.

**Q.** And the TGI (PC-3 prostate)?
**A.** The TGI was 18 µM.

**Q.** And the GI50 (MCF7 breast)?
**A.** The GI50 was 3.11 µM.

**Q.** And the TGI (MCF7 breast)?
**A.** The TGI was 15.8 µM.

**Q.** And the GI50 (RXF 393 renal)?
**A.** Its GI50 is 5.4 µM.

**Q.** What about the TGI (RXF 393 renal) of the same molecule?
**A.** The TGI was 18.6 µM.

**Q.** And the GI50 (SK-OV-3 ovarian)?
**A.** Its GI50 is 13.8 µM.

**Q.** What about the TGI (SK-OV-3 ovarian) of the same molecule?
**A.** The TGI was 27.4 µM.

**Q.** What about the GI50 (SK-MEL-28 melanoma) of the same molecule?
**A.** Its GI50 is 15 µM.

**Q.** What about the TGI (SK-MEL-28 melanoma) of the same molecule?
**A.** The TGI was 28.7 µM.

**Q.** What about the GI50 (HL-60(TB) leukemia) of the same molecule?
**A.** Its GI50 is 0.784 µM.

**Q.** What about the TGI (HL-60(TB) leukemia) of the same molecule?
**A.** Its TGI is 43.9 µM.

**Q.** What about the GI50 (HOP-92 NSCLC) of the same molecule?
**A.** Its GI50 is 3.42 µM.

**Q.** What about the TGI (HOP-92 NSCLC) of the same molecule?
**A.** The TGI was 18.5 µM.

**Q.** What about the GI50 (ACHN renal) of the same molecule?
**A.** The GI50 was 11.8 µM.

**Q.** And the TGI (ACHN renal)?
**A.** Its TGI is 24.1 µM.

**Q.** And the GI50 (OVCAR-4 ovarian)?
**A.** Its GI50 is 11 µM.

**Q.** What about the TGI (OVCAR-4 ovarian) of the same molecule?
**A.** The TGI was 23.1 µM.

**Q.** What about the GI50 (M14 melanoma) of the same molecule?
**A.** The GI50 was 5.5 µM.

**Q.** And the TGI (M14 melanoma)?
**A.** The TGI was 19.4 µM.

**Q.** And the GI50 (UACC-257 melanoma)?
**A.** Its GI50 is 9.67 µM.

**Q.** And the TGI (UACC-257 melanoma)?
**A.** The TGI was 22.3 µM.

**Q.** What about the GI50 (OVCAR-8 ovarian) of the same molecule?
**A.** The GI50 was 4.03 µM.

**Q.** And the TGI (OVCAR-8 ovarian)?
**A.** Its TGI is 16.7 µM.

**Q.** What about the GI50 (KM12 colon) of the same molecule?
**A.** Its GI50 is 3.09 µM.

**Q.** What about the TGI (KM12 colon) of the same molecule?
**A.** The TGI was 11.7 µM.

**Q.** And the GI50 (SF-539 CNS)?
**A.** The GI50 was 5.4 µM.

Source: PubChem BioAssay (NCI)
